The record followed here is patent publication US20130102595A1 (Curis, Inc., priority 2011, published 2013).

The subject of assay [1] is HDACs (HeLa cell nuclear extracts). As to the kind of experiment: HDAC enzymatic activity, Biomol Color de Lys system. As to conditions: 1 hour, 25° C. The class given is biochemical. As for the experimental part:
(E) an In Vitro Assay which Determines the Ability of a Test Compound to Inhibit HDAC Enzymatic Activity.
HDAC inhibitory activity was assessed using the Biomol Color de Lys system (AK-500, Biomol, Plymouth Meeting, Pa.). Briefly, HeLa cell nuclear extracts were used as a source of HDACs. Different concentrations of test compounds were serially diluted in dimethylsulphoxide (DMSO) and added to HeLa cell nuclear extracts in the presence of a colorimetric artificial substrate. Final assay condition contained 50 mM Tris/Cl, pH 8.0, 137 mM NaCl, 2.7 mM KCl and 1 mM MgCl2. Reactions were carried in room temperature (25° C.) for 1 hour before addition of developer for termination. Relative enzyme activity was measured in the WALLAC Victor II 1420 microplate reader as fluorescence intensity (excitation: 350-380 nm; emission: 440-460 nm). Data were analyzed using GraphPad Prism (v4.0a) with a sigmoidal dose response curve fitting for IC50 calculation.

The next assay has as its target T1, PI3Kα (p110α/p85α) (Homo sapiens, UniProt P42336).
T1 construct: GST (N); made in house; host or cells: Baculovirus-infected Sf9 cells
As to the kind of experiment: PI3Kα ADP-Glo assay. The class given is biochemical. Conditions: 20 μM PIP2, 10 μM ATP, 30 minutes. As for the experimental part:
(A) an In Vitro Assay which Determines the Ability of a Test Compound to Inhibit PI3Kα.
Activity of PI3Kα was measured using ADP-Glo assay from Promega. PI3Kα, a complex of N-terminal GST-tagged recombinant full-length human p110α (GenBank, Accession No. U79143) and N-terminal His tagged recombinant full length human p85a (GenBank Accession No. XM—043865) were co-expressed in a Baculovirus infected Sf9 cell expression system. The ADP-Glo assay was performed to measure the amount of ADP generated from ATP hydrolysis coupled with PIP2 phosphorylation by the purified recombinant PI3Kα (p110α/p85α). PI3Kα was incubated with 20 μM PIP2 substrate in the reaction buffer (50 mM HEPES, pH 7.4, 150 mM NaCl, 5 mM MgCl2, 1 mM DTT, 3 uM Naorthovanadate, 10 μM ATP and 0.5% DMSO) for 30 minutes at room temperature. The ADP generated was then detected by ADP-Glo assay from Promega, a luminescent ADP detection assay. The ADP-Glo assay is performed in two steps; first, after the kinase reaction, ADP-Glo Reagent is added to terminate the kinase reaction and deplete the remaining ATP. Second, the Kinase Detection Reagent is added to simultaneously convert ADP to ATP and allow the newly synthesized ATP to be measured using a luciferase/luciferin reaction.

T1 sequence (P42336 whole entry): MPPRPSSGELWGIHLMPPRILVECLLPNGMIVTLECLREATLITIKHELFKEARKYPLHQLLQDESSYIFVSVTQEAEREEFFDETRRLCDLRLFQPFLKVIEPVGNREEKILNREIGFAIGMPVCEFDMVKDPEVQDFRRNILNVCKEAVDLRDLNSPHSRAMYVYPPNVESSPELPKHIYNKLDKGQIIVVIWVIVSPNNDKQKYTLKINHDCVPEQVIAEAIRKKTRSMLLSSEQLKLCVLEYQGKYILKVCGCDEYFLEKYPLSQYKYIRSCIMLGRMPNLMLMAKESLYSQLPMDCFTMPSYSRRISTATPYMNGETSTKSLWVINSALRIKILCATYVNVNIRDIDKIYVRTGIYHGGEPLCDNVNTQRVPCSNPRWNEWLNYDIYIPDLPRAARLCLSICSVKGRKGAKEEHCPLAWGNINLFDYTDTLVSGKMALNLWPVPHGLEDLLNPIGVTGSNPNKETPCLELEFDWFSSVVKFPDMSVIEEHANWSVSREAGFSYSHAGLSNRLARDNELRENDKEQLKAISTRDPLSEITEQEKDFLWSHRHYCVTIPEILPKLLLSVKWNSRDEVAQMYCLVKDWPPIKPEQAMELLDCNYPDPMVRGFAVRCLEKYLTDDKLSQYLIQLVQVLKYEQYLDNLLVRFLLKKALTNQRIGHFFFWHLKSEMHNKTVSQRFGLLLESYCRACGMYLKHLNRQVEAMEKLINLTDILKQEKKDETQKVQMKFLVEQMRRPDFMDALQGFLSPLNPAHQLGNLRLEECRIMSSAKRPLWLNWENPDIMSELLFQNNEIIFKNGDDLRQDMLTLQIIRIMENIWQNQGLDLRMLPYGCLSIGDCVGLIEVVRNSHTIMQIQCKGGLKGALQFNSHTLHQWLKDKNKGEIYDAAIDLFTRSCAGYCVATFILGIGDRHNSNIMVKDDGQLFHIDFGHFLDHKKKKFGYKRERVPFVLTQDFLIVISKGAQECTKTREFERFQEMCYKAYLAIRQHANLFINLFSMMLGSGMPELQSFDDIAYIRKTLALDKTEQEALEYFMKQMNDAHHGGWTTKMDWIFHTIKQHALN
T1 sequence (P27986 whole entry partner): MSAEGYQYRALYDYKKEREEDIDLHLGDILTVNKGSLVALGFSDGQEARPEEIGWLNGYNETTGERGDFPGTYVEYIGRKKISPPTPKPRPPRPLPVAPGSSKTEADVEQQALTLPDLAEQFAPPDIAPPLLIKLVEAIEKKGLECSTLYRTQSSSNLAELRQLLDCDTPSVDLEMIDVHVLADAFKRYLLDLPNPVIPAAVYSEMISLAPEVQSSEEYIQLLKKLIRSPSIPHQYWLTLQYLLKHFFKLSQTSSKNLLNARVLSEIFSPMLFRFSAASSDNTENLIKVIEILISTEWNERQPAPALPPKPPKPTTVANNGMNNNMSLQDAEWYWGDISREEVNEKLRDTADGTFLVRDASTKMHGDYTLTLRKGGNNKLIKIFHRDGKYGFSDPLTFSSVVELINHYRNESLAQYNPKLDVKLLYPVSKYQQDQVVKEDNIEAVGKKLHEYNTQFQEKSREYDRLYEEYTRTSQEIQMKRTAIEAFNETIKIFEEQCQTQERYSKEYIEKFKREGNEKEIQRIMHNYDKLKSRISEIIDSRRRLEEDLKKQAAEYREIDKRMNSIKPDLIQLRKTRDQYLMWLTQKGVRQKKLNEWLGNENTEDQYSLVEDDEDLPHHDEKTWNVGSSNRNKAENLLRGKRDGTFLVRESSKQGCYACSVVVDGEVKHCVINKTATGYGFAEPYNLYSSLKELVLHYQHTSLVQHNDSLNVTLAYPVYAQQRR

In the case of `CC1CN(c2nc(-c3cccc4[nH]ncc34)nc3cc(CN(C)c4ncc(C(=O)NO)cn4)sc23)CC(C)O1` (stereo not drawn) [Compound 65], the results for the IC50 (in assay [1]; at PI3Kα (p110α/p85α)) were under 100 nM and 100 to 1000 nM, respectively.

As for `CN(Cc1cc2nc(-c3cccc4[nH]ncc34)nc(N3CCOCC3)c2s1)c1ccc(C(=O)NO)cc1` [Compound 79], the IC50 (in assay [1]; on PI3Kα (p110α/p85α)) was under 100 nM each time.

On to `COCCNc1nc(-c2cccc3[nH]ncc23)nc2cc(CN(C)c3ncc(C(=O)NO)cn3)sc12` [Compound 160], for which the IC50 was under 100 nM in assay [1] and over 10000 nM against PI3Kα (p110α/p85α).

With `CCCc1nc2cc(/C=C/C(=O)NO)ccc2n1CCNCc1cc2nc(-c3ccc(N)cc3)nc(N3CCOCC3)c2s1` [Compound 325], the results for the IC50 (in assay [1]; against PI3Kα (p110α/p85α)) were 100 to 1000 nM and 1000 to 10000 nM, respectively.

`O=C(O)CN(Cc1cc2nc(-c3cccc4[nH]ncc34)nc(N3CCOCC3)c2s1)c1ncc(C(=O)NO)cn1` [Compound 88]: the results for the IC50 (in assay [1]; against PI3Kα (p110α/p85α)) were 100 to 1000 nM and under 100 nM, respectively.

Turning to `CN(Cc1cc2nc(-c3cccc4[nH]ncc34)nc(N3CCCCC3)c2s1)c1ncc(C(=O)NO)cn1` [Compound 67], the IC50 in assay [1] was under 100 nM; against PI3Kα (p110α/p85α) it was 100 to 1000 nM.

For `CN(Cc1cc2nc(-c3ccc(N)cc3)nc(N3CCOCC3)c2s1)c1ccc(C(=O)NO)cc1` [Compound 206], the IC50 was under 100 nM in assay [1] and 100 to 1000 nM at PI3Kα (p110α/p85α).

On to `CN(Cc1cc2nc(-c3cccc(C(C)(C)O)c3)nc(N3CCOCC3)c2s1)c1ncc(C(=O)NO)cn1` [Compound 302], for which the IC50 in assay [1] was under 100 nM; against PI3Kα (p110α/p85α) it was over 10000 nM.

Take `Nc1ccc(-c2nc(N3CCOCC3)c3sc(S(=O)(=O)NCC4CCN(c5ncc(C(=O)NO)cn5)CC4)cc3n2)cc1` [Compound 309]: the IC50 (in assay [1]; at PI3Kα (p110α/p85α)) was 100 to 1000 nM each time.

`NCCN(Cc1cc2nc(-c3cccc4[nH]ncc34)nc(N3CCOCC3)c2s1)c1ncc(C(=O)NO)cn1` [Compound 94]: the IC50 (in assay [1]; against PI3Kα (p110α/p85α)) was under 100 nM each time.

Turning to `Nc1ccc(-c2nc(N3CCOCC3)c3sc(Nc4ncc(C(=O)NO)cn4)cc3n2)cc1` [Compound 273], the IC50 was 100 to 1000 nM in assay [1] and under 100 nM against PI3Kα (p110α/p85α).

For `CN(Cc1cc2nc(-c3ccc(N)cc3)nc(N3CCOCC3)c2s1)Cc1nc2cc(/C=C/C(=O)NO)ccc2n1C` [Compound 327], the half-maximal inhibitory concentration (IC50) in assay [1] was 100 to 1000 nM; at PI3Kα (p110α/p85α), 1000 to 10000 nM.

For the molecule `CC(=O)c1cccc(-c2nc(N3CCOCC3)c3sc(CN(C)c4ncc(C(=O)NO)cn4)cc3n2)c1` [Compound 300], the IC50 is under 100 nM in assay [1] and 100 to 1000 nM against PI3Kα (p110α/p85α).

In the case of `O=C(CCCCCCNc1cc2nc(-c3cccc4[nH]ncc34)nc(N3CCOCC3)c2s1)NO` [Compound 20], the IC50 in assay [1] is under 100 nM; at PI3Kα (p110α/p85α), 100 to 1000 nM.

For `CC(C)(Nc1ncc(C(=O)NO)cn1)c1cc2nc(-c3cccc4[nH]ncc34)nc(N3CCOCC3)c2s1` [Compound 71], the IC50 in assay [1] is under 100 nM; at PI3Kα (p110α/p85α), 100 to 1000 nM.

For the molecule `CN(Cc1cc2nc(-c3cccc4[nH]c(=S)[nH]c34)nc(N3CCOCC3)c2s1)c1ncc(C(=O)NO)cn1` [Compound 315], the IC50 (in assay [1]; on PI3Kα (p110α/p85α)) was under 100 nM throughout.

For `CCCc1nc2cc(/C=C/C(=O)NO)ccc2n1CCN(C)Cc1cc2nc(-c3ccc(NC)nc3)nc(N3CCOCC3)c2s1` [Compound 322], the IC50 (in assay [1]; against PI3Kα (p110α/p85α)) was 100 to 1000 nM in each case.

As to `O=C(/C=C/c1ccc(CNCc2cc3nc(-c4cccc5[nH]ncc45)nc(N4CCOCC4)c3s2)cc1)NO` [Compound 204], the IC50 (in assay [1]; at PI3Kα (p110α/p85α)) was 100 to 1000 nM in each case.

On to `CNc1ccc(-c2nc(N3CCOCC3)c3sc(CN(C)Cc4nc5cc(/C=C/C(=O)NO)ccc5n4C)cc3n2)cn1` [Compound 329], for which the 50% inhibitory concentration (IC50) in assay [1] was 100 to 1000 nM; at PI3Kα (p110α/p85α), under 100 nM.

As to `Cc1c(CN(C)c2ncc(C(=O)NO)cn2)sc2c(N3CCOCC3)nc(-c3cccc4[nH]ncc34)nc12` [Compound 68], the IC50 in assay [1] was under 100 nM; at PI3Kα (p110α/p85α), 100 to 1000 nM.

For `CNc1ccc(-c2nc(N3CCOCC3)c3sc(N(C)c4ncc(C(=O)NO)cn4)cc3n2)cn1` [Compound 243], the IC50 was 100 to 1000 nM in assay [1] and under 100 nM against PI3Kα (p110α/p85α).

On to `CN(CC1CCN(c2ncc(C(=O)NO)cn2)CC1)c1cc2nc(-c3cccc4[nH]ncc34)nc(N3CCOCC3)c2s1` [Compound 49], for which the IC50 in assay [1] was 100 to 1000 nM; against PI3Kα (p110α/p85α) it was under 100 nM.

Turning to `CCN(CC)c1nc(-c2cccc3[nH]ncc23)nc2cc(CN(C)c3ncc(C(=O)NO)cn3)sc12` [Compound 158], the IC50 is under 100 nM in assay [1] and over 10000 nM against PI3Kα (p110α/p85α).

`COc1ncc(-c2nc(N3CCOCC3)c3sc(C(C)(C)N(C)c4ncc(C(=O)NO)cn4)cc3n2)cn1` [Compound 264]: the results for the IC50 (in assay [1]; against PI3Kα (p110α/p85α)) were under 100 nM and 100 to 1000 nM, respectively.

On to `O=C(NO)c1cnc(N2CCN(S(=O)(=O)c3cc4nc(-c5cccc6[nH]ncc56)nc(N5CCOCC5)c4s3)CC2)nc1` [Compound 51], for which the IC50 in assay [1] is 100 to 1000 nM; at PI3Kα (p110α/p85α), under 100 nM.

Consider `Cn1cc(CNc2cc3nc(-c4cccc5[nH]ncc45)nc(N4CCOCC4)c3s2)c2cc(C(=O)NO)ccc21` [Compound 106], for which the IC50 in assay [1] is 1000 to 10000 nM; on PI3Kα (p110α/p85α), under 100 nM.

Regarding `O=C(CCCCNc1cc2nc(-c3cccc4[nH]ncc34)nc(N3CCOCC3)c2s1)NO` [Compound 18], the IC50 in assay [1] was under 100 nM; against PI3Kα (p110α/p85α), 100 to 1000 nM.

With `O=C(/C=C/c1cc2nc(-c3cccc4[nH]ncc34)nc(N3CCOCC3)c2s1)NO` [Compound 46], the IC50 was 1000 to 10000 nM in assay [1] and 100 to 1000 nM on PI3Kα (p110α/p85α).

Take `COc1ncc(-c2nc(N3CCOCC3)c3sc(NS(=O)(=O)c4cccc(/C=C/C(=O)NO)c4)cc3n2)cn1` [Compound 220]: the IC50 (in assay [1]; against PI3Kα (p110α/p85α)) was under 100 nM each time.

Consider `O=C(NO)c1cnc(NCc2cc3cc(-c4cccc5[nH]ncc45)nc(N4CCOCC4)c3s2)nc1` [Compound 73], for which the IC50 in assay [1] is under 100 nM; at PI3Kα (p110α/p85α), 100 to 1000 nM.

As for `C#CCCN(Cc1cc2nc(-c3cccc4[nH]ncc34)nc(N3CCOCC3)c2s1)c1ncc(C(=O)NO)cn1` [Compound 98], the IC50 (in assay [1]; against PI3Kα (p110α/p85α)) was under 100 nM throughout.

For the molecule `CC(=O)NCCN(Cc1cc2nc(-c3cccc4[nH]ncc34)nc(N3CCOCC3)c2s1)c1ncc(C(=O)NO)cn1` [Compound 96], the IC50 (in assay [1]; at PI3Kα (p110α/p85α)) was under 100 nM each time.

Take `CN(Cc1cc2nc(-c3cnc(OCc4ccccc4)nc3)nc(N3CCOCC3)c2s1)c1ncc(C(=O)NO)cn1` [Compound 266]: the IC50 is under 100 nM in assay [1] and 100 to 1000 nM against PI3Kα (p110α/p85α).

As for `O=C(CCCCNc1cc2nc(-c3cc(O)ccc3F)nc(N3CCOCC3)c2s1)NO` [Compound 231], the IC50 (in assay [1]; against PI3Kα (p110α/p85α)) was under 100 nM in each case.

With `CC(=O)N1CCN(c2nc(-c3cccc4[nH]ncc34)nc3cc(CN(C)c4ncc(C(=O)NO)cn4)sc23)CC1` [Compound 62], the IC50 in assay [1] was under 100 nM; at PI3Kα (p110α/p85α), over 10000 nM.

In the case of `COc1ccc(-c2nc(N3CCOCC3)c3sc(C(C)N(C)c4ncc(C(=O)NO)cn4)cc3n2)cn1` (stereo not drawn) [Compound 247, N-hydroxy-2-((1-(2-(6-methoxypyridin-3-yl)-4-morpholino-thieno[3,2-d]pyrimidin-6-yl)ethyl)(methyl)amino)pyrimidine-5-carboxamide], the IC50 (in assay [1]; against PI3Kα (p110α/p85α)) was under 100 nM throughout.

Take `CN(Cc1cc2nc(-c3ccc(O)nc3)nc(N3CCOCC3)c2s1)c1ncc(C(=O)NO)cn1` [Compound 254]: the IC50 in assay [1] was under 100 nM; against PI3Kα (p110α/p85α), 100 to 1000 nM.

Take `CN(Cc1cc2nc(-c3cccc4[nH]ncc34)nc(N3CCOCC3)c2s1)c1ncc(/C=C/C(=O)NO)cn1` [Compound 75]: the IC50 in assay [1] was 100 to 1000 nM; against PI3Kα (p110α/p85α), under 100 nM.

For `CN(Cc1cc2nc(-c3cccc(CCO)c3)nc(N3CCOCC3)c2s1)c1ncc(C(=O)NO)cn1` [Compound 306], the figures for the IC50 (in assay [1]; at PI3Kα (p110α/p85α)) were under 100 nM and 100 to 1000 nM, respectively.

On to `O=C(NO)c1cc2nc(-c3cccc4[nH]ncc34)nc(N3CCOCC3)c2s1` [Compound 45], for which the IC50 in assay [1] was over 10000 nM; on PI3Kα (p110α/p85α) it was under 100 nM.

Regarding `CN(Cc1cc2nc(-c3ccc4c(c3)CCN4)nc(N3CCOCC3)c2s1)c1ncc(C(=O)NO)cn1` [Compound 193], the concentration for half-maximal inhibition (IC50) in assay [1] is under 100 nM; at PI3Kα (p110α/p85α), over 10000 nM.

For `COc1ccc(Nc2nc(-c3cccc4[nH]ncc34)nc3cc(CN(C)c4ncc(C(=O)NO)cn4)sc23)cc1` [Compound 165], the IC50 in assay [1] is under 100 nM; on PI3Kα (p110α/p85α) it was over 10000 nM.

Usually IC50 stands for the concentration at which inhibition is half-maximal.
